In patent US12063914B2, “DNA sequence that increases odorant receptor representation in the olfactory system” (Research Foundation of the City University of New York, priority 2015, dated 2024):

Columns and labels:
M71 OR [1] = target: T1, M71 OR (Mus musculus, UniProt Q60893); experiment: Two-bottle discrimination behavioral avoidance task (odor detection threshold) with 24dMACP; format: in vivo
T1 construct: the increase of OSNs expressing the M71 OR results in the coalescence of labeled axons; expressed in transfected cells; host or cells: olfactory sensory neurons of living transgenic mice (4•M71Cα, 5•M71Cα), made by pronuclear injection of the M71 minigene
T1 sequence (Q60893 1-309): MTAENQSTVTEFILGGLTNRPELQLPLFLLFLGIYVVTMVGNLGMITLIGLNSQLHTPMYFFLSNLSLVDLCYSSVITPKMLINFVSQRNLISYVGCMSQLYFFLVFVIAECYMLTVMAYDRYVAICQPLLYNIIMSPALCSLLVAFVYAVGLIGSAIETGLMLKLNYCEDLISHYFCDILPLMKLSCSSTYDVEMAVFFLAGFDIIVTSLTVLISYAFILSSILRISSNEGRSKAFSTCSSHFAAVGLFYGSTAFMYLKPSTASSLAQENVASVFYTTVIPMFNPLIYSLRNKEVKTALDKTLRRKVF
Procedure: Sensitivity studies performed in Wistar rat neonates and adults have shown that the highest sensitivity to an odor (lowest threshold) correlates with the highest OSN density in the MOE. […] Therefore, it was desirable to assess whether detection of the most robust M71 ligand is amplified in this M71 line. An avoidance task was used in which the odorant 24dMACP is added to drinking water and becomes an aversive stimulus associated with injection of Lithium Chloride (LiCl), a compound known to induce gastric malaise. After conditioning homozygous 4•M71Cα animals and their WT littermates to water containing a 10-4 dilution of 24dMACP, the animals are given the choice between plain water and water with decreasing concentrations of 24dMACP (10^−4, 10^−6, 5×10^−7 and 10^−7). Note that all tested animals are homozygous for M71G, so even WT have a functional M71 OR.
The results are presented as a preference index (PI) for the odorized water for each group of animals which is calculated as the amount of the odorized water consumed divided by the total amount of liquid (odor and no-odor water) consumed over a 24 hr time period (FIG. 3A). A PI of 50% reflects no preference of the animal. […] When presented with 10^−4 and 10^−6 dilutions, both conditioned 4•M71Cα homo and WT animals show a clear aversion towards 24dMACP reflected through an average PI for 24dMACP of about 10%. However, when 24dMACP is delivered at 10^−7 all animals fail to detect the presence of the odor with an average PI of 53.41% for the WT (n=4) and 62.67% for the homozygous animals (n=8).
To compare specific odorant sensitivity between the 5•M71Cα and the 4•M71Cα line, the 2-bottle discrimination behavioral task was performed with 24dMACP as described above (FIG. 3B). […] Even though the same but slightly more significant 0.3 log decrease in odorant detection threshold is observed in the 5•M71Cα line, it is important to mention that 5•M71Cα hemi animals were used which have about 1.6% of their OSNs expressing M71 (similar to the 4•M71Cα homo animals with about 2% M71 expressing OSNs).
Olfactory behavior test: A two-bottle discrimination test was performed as previously described. Since the mice are tested for the ability to detect a single odor in drinking water at increasingly lower concentrations, this discrimination assay is also considered a detection threshold test. Mice 8 weeks old were individually housed and given food ad libitum but restricted access to saccharin-phthalic acid solution (2.1×10^−2 M sodium saccharin and 10^−3M phthalic acid pH 6.5) for 1 h twice a day for two days before the assay begins. This ensures mice would commence drinking the solution during the conditioning. On day 3 (conditioning day) mice are exposed to sodium saccharine phthalic acid (SSPA) solution with 1 dilution of odorized water for 10 minutes. Immediately after, they are injected with lithium chloride intraperitoneally (15 μl/g body weight of a 0.6 M solution) to induce the aversive malaise and lethargy state. After two hours mice are returned to their home cage and given access to two bottles of drinking water; they are given the choice between SSPA solution containing a 10^−4 dilution of the odor versus the non-odorized SSPA solution. During the following 3 days, every 24 hours, the location of the bottles is reversed and the concentration of the odorized solution is decreased to 10^−6, 10^−7 and 0.5×10^−6, respectively. Every day both bottles are weighed to determine the amount of liquid consumed. A preference index was calculated as the amount of odorized solution consumed divided by the total amount of water solution consumed for each mouse for every 24 hour test period at each odor concentration. Student's t test was performed to test statistical significance, assuming two-tailed distribution and two-sample unequal variance. Values are mean±SEM and are plotted on a LOG scale.

M71 OR [2] = target: T1, M71 OR; experiment: as above; format: in vivo; conditions: naïve, 10^−6 dilution, 24 hr

average PI (M71 OR [1]; 5•M71Cα hemi group, dilution 5×10^−7): 19.62%
decrease in odorant detection threshold (M71 OR [1]; 5•M71Cα line vs WT (same as 4•M71Cα line)): 0.3 log
average PI (M71 OR [1]; WT group of the 5•M71Cα experiment, dilution 5×10^−7): 55.32%
average PI (M71 OR [1]; conditioned 4•M71Cα homo and WT animals, 10^−4 and 10^−6 dilutions): about 10%
PI (M71 OR [1]; conditioned 4•M71Cα homozygous mutants, 5×10^−7 dilution): 26.12%
average PI (M71 OR [1]; conditioned 4•M71Cα homozygous, 10^−7 dilution): 62.67%
PI (M71 OR [1]; conditioned WT (littermates of 4•M71Cα), 5×10^−7 dilution): 62.79%
PI (M71 OR [1]; conditioned WT, 10^−4 dilution): 11.84%
average PI (M71 OR [1]; conditioned WT, 10^−7 dilution): 53.41%
preference index (PI) for odorized water (M71 OR [2]; unconditioned 4•M71Cα Homo mice): 59%
preference index (PI) for odorized water (M71 OR [2]; unconditioned WT mice): 60%
Structure (SMILES): CC(=O)c1ccc(C)cc1C [24dMACP, 2,4-dimethyl acetophenone]
